Laboratory results published in patent US12295997B2, “Prostate neoantigens and their uses” (Janssen Biotech, Inc., priority 2020, dated 2025).

B1: P19 (peptide, listed as Homo sapiens)
chain: WTPIPVLTRWPLPHPPPWRRATSCRMARSSPSATSGSSVRRRCSSLPSWVWNLAASTRPRSTPS

System: CD8+ and CD4+ T cells (autologous CD3+ Pan-T cells isolated from human normal PBMCs)
Assay: Exogenous autologous normal donor restimulation assay (15-mer overlapping peptide pools on CD1c+ dendritic cells, TNFα/IFNγ flow cytometry)
Type: cell-based
Details: 15-mer overlapping peptide pool; for Maximum Fold Change Over Background CD4+ cells / Maximum Fold Change Over Background CD8+ cells / Maximum Frequency of TNFα/IFNγ Double Positive CD4+ T cells / Maximum Frequency of TNFα/IFNγ Double Positive CD8+ T cells: Table 25; for Maximum Fold Change Over Background CD4+ cells: TNFα+IFNγ+ CD4+ T cells; for Maximum Fold Change Over Background CD4+ cells / Maximum Fold Change Over Background CD8+ cells: highest fold change over negative control across normal donors; for Maximum Fold Change Over Background CD8+ cells: TNFα+IFNγ+ CD8+ T cells; for Maximum Frequency of TNFα/IFNγ Double Positive CD4+ T cells / Maximum Frequency of TNFα/IFNγ Double Positive CD8+ T cells: highest frequency across normal donors
Outline: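 Readout was intracellular TNFα/IFNγ flow cytometry on live CD3+ CD8+ and CD4+ cells after day-11 peptide restimulation. Stimulators were CD1c+ dendritic cells loaded with overlapping 15-mer peptide pools (2.5–10 μg/mL), irradiated, and cultured 12 days with autologous normal-donor Pan-T cells plus IL-15/IL-2. A response counted when ≥3-fold over DMSO control and at least 0.01%.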

[1] = Table 28, additional neoantigens, highest across normal donors

Molecule	Maximum Fold Change Over Background CD4+ cells	Maximum Fold Change Over Background CD8+ cells	Maximum Frequency of TNFα/IFNγ Double Positive CD4+ T cells	Maximum Frequency of TNFα/IFNγ Double Positive CD8+ T cells	Max. Fold Change over background CD4+ TNFαINFγ double positive DP [1]	Max. Fold Change over background CD8+ TNFαINFγ double positive DP [1]	Max. Frequency of CD4+ TNFαINFγ DP [1]	Max. Frequency of CD8+ TNFαINFγ DP [1]
YEAGMTLGGKILFFLFLLLPLSPFSLIF (listed as Homo sapiens) [Neoantigen P87]	7.86	9.20	0.110	0.460				
SLYHREKQLIAMDSAI (listed as Homo sapiens) [Neoantigen P22]	18.16	1.56	0.075	0.025				
YEAGMTLGEKFRVGNCKHLKMTRP (listed as Homo sapiens) [Neoantigen P82]	4.44	2.92	0.17	0.09				
B1					6.67	4.76	0.16	0.15
